# Experimental data from patent US11690824B2, “Antibacterial compounds” (THE GENERAL HOSPITAL CORPORATION, priority 2018, dated 2023).
# Where two headings read alike, the source gives them in different places.
# Legend:
# A. baumannii ATCC 17978 = assay: MIC assay; type: cell-based, Acinetobacter baumannii; conditions: for MIC: Acinetobacter baumannii
# From the text: (§1) Bacterial strains, growth conditions, and persister isolation. Methicillin-resistant S. aureus strains, MW2 BAA-1707, ATCC 33591, and JE2, methicillin-susceptible S. aureus strains, NCTC 8325, Newman, and ATCC 29213, vancomycin-resistant S. aureus strain, VRS1, Enterococcus faecium E007, vancomycin-resistant E. faecium strains, C68,^7 WB312, and WC196, Klebsiella pneumoniae WGLW2 (BEI Resources, Manassas, Va., USA), Acinetobacter baumannii ATCC 17978, Pseudomonas aeruginosa PA14, and Enterobacter aerogenes ATCC 13048 were used to test antimicrobial activity (Table 1). S. aureus strains were grown in tryptic soy broth (TSB) (BD, Franklin Lakes, N.J., USA), and E. faecium was grown in brain-heart infusion (BHI) broth (BD, Franklin Lakes, N.J., USA) at 37° C. K. pneumoniae, A. baumannii, P. aeruginosa, and E. aerogenes were grown in Luria Bertani (LB) broth (BD, Franklin Lakes, N.J., USA) at 37° C.
# (§2) Minimal inhibitory concentration (MIC) assay. The MICS of antibiotics were determined by the standard micro-dilution method recommended by the Clinical and Laboratory Standards Institute. MIC assays were conducted in biological triplicate.
# E. faecium WB312 = assay: MIC assay; type: cell-based, Enterococcus faecium; conditions: for MIC: Enterococcus faecium
# From the text: as §1, §2
# E.faecium E007 = assay: MIC assay; type: cell-based, Enterococcus faecium; conditions: for MIC: Enterococcus faecium
# From the text: as §1, §2
# E. faecium C68 = assay: MIC assay; type: cell-based, Enterococcus faecium; conditions: for MIC: Enterococcus faecium
# From the text: as §1, §2
# E. faecium WC196 = assay: MIC assay; type: cell-based, Enterococcus faecium; conditions: for MIC: Enterococcus faecium
# From the text: as §1, §2
# K. pneumoniae WGLW2 = assay: MIC assay; type: cell-based, Klebsiella pneumoniae; conditions: for MIC: Klebsiella pneumoniae
# From the text: as §1, §2
# E. aerogenes ATCC 13048 = assay: MIC assay; type: cell-based, Enterobacter aerogenes; conditions: for MIC: Klebsiella aerogenes
# From the text: as §1, §2
# MRSA MW2 [1] = assay: Serial passage resistance development; type: cell-based, S. aureus; conditions: 25 days, sub-MIC concentrations
# Procedure: Serial passage resistance development. […] Briefly, an extended range of concentrations of nTZDpa was generated by two-fold serial dilution with cation-adjusted Mueller Hinton (CaMH) broth (Difco, Detroit, USA) from three different starting concentrations (20, 24, and 32 μg/mL) covering 0.1875 to 32.0 μg/mL, which extended over three rows of the 96-well plate. Three sets of the extended gradient of nTZDpa were created in the 96-well plate to provide triplicates of the experiment. […] MRSA MW2 overnight cultures were adjusted to 1×10^6 CFU/mL in CaMH broth, and 50 μL of the diluted cultures were dispensed into the 96-well plates containing 50 μL of the extended gradient of antibiotics. After incubation for 24 h at 35° C., bacterial growth was determined by measuring optical density at 600 nm using a SpectraMax plate reader (Molecular Devices, Sunnyvale, Calif.), and growth was defined as an optical density reading of ≥0.1. Bacterial cells growing at the highest concentration of the antimicrobial (just below the MIC) were diluted 1:1000 in CaMH broth and then used to inoculate the next day's serial-passage plate. The remaining bacterial cells were stored at −80° C. in CaMH broth with 16% glycerol. This process was repeated for 25 days.
# P. aeruginosa PA14 = assay: MIC assay; type: cell-based, Pseudomonas aeruginosa; conditions: for MIC: Pseudomonas aeruginosa
# From the text: as §1, §2
# S. aureus VRS1 = assay: MIC assay; type: cell-based; conditions: for MIC: Staphylococcus aureus
# From the text: as §1, §2
# S. aureus Newman = assay: MIC assay; type: cell-based; conditions: for MIC: Staphylococcus aureus, read-out: Minimum inhibitory concentration
# From the text: as §1, §2
# S. aureus ATCC 33591 = assay: MIC assay; type: cell-based; conditions: for MIC: Staphylococcus aureus
# From the text: as §1, §2
# S. aureus JE2 = assay: MIC assay; type: cell-based; conditions: for MIC: Staphylococcus aureus
# From the text: as §1, §2
# S. aureus NCTC 8325 = assay: MIC assay; type: cell-based; conditions: for MIC: Staphylococcus aureus
# From the text: as §1, §2
# MRSA MW2 [2] = assay: Antibiotic synergy test (checkerboard); type: cell-based, S. aureus; conditions: nTZDpa in combination with the named antibiotic, synergy if FICI ≤ 0.5
# Procedure: Antibiotic synergy test. Antibiotic synergism was evaluated by the checkerboard method. Briefly, 2-fold serial dilutions of nTZDpa were combined with 2-fold serial dilutions of each other antibiotic, which created an 8×8 matrix in a 96-well microtiter plate. The fractional inhibitory concentration index (FICI) was calculated as follows: FICI=MIC of compound A in combination/MIC of compound A alone+MIC of compound B in combination/MIC of compound B alone. The interaction between two compounds was defined, as follows: synergy if FICI≤0.5, no interaction if 0.5<FICI≤4, and antagonism if FICI>4.
# S. aureus (MRSA) MW2 = assay: Minimal inhibitory concentration (MIC) assay, micro-dilution; type: cell-based
# From the text: as §1, §2
# MRSA MW2 [3] = assay: Deep-seated mouse thigh infection model; type: in vivo; conditions: vancomycin 25 mg/kg i.p., gentamicin 30 mg/kg s.c., nTZDpa 50 mg/kg i.p., 5 days
# Procedure: Deep-seated mouse thigh infection model. In vivo efficacy of nTZDpa alone or in combination with gentamicin against MRSA persisters was evaluated by a previously described neutropenic mouse thigh infection model with modifications. Six-week-old female CD-I mice (20-25 g, Charles River Laboratories, Wilmington, Mass., USA) were obtained from Charles River Laboratories (Wilmington, Mass., USA). The CD-I mice were rendered neutropenic by administering 150 mg/kg and 100 mg/kg of cyclophosphamide intraperitoneally (i.p.) at 4 days and 1 day before infection, respectively. On the day of infection, overnight culture of MRSA MVV2 was washed 3-time with sterile saline and diluted to 10^7 CFU/ml in the saline. 50 μl of the diluted culture (5×10^5 CFU per mouse) was injected to the right thigh of each mouse. nTZDpa was dissolved in Kolliphor EL (Sigma-Aldrich, St Louis, Mo., USA)/ethanol 1:1 and then diluted 1:10 in saline to a final concentration of 50 mg/kg. At 24 h post-infection, groups of mice (n=10) were treated with 30 mg/kg gentamicin subcutaneously (s.c.) every 12 h, 25 mg/kg vancomycin i.p. every 24 h, 50 mg/kg nTZPpa i.p. every 24 h, or the combination of 50 mg/kg nTZDpa i.p. every 24 h and 30 mg/kg gentamicin s.c. every 12 h for 5 days. Control mice were injected with 250 μl of 10% Kolliphor EL/ethanol in saline i.p. every 24 h for 5 days. Mice were euthanized at 96 h post-infection. Blood was collected by cardiac puncture, and the infected thighs were aseptically excised, weighed, and stored at 4° C. until homogenization. To evaluate hepatic and renal toxicities, the levels of alanine aminotransferase and blood urea nitrogen were analyzed with commercially available kits, following the manufacturer's protocol (Pointe Scientific, Canton, Mich., USA). Thighs were homogenized in PBS, serially diluted with PBS, and spot-plated on TSA plates. […] Statistical significance among each group was analyzed by one-way ANOVA with post-hoc Tukey test using PASW Statistics 18 (SPSS Inc. Chicago, Ill., USA).
# [4] = tested on: exponential-phase MRSA MW2; assay: Killing kinetics assay; type: cell-based, S. aureus; conditions: 32 μg/ml (32× MIC), after 4 hours
# Procedure: Killing kinetics assay. An MRSA MW2 overnight culture was diluted 1:10,000 in 25 mL TSB (˜10^5 CFU/mL) in a 250 mL flask and incubated at 37° C. with shaking at 200 rpm for 4.5 h until it reached exponential-phase (˜2×10^7 CFU/mL). 1 mL of the exponential phase cell culture was mixed with 1 mL of pre-warmed TSB containing twice the desired concentrations of antibiotics in a 96-well assay block (Corning Costar 3960). The assay block was incubated at 37° C. with shaking at 200 rpm. At every hour, 400 μl aliquots were taken, washed once with phosphate buffered saline (PBS), serially diluted and spot-plated onto tryptic soy agar (TSA, BD) plates. After incubation at 37° C. for overnight, colonies were counted to enumerate the number of cells. These experiments were conducted in biological triplicate.
# S. aureus ATCC 29213 = assay: MIC assay; type: cell-based
# From the text: as §1, §2
compound,measurement,setting,value
"O=C(O)c1cn(C2CC2)c2cc(N3CCNCC3)c(F)cc2c1=O [Ciprofloxacin, ciprofloxacin]",MIC,"A. baumannii ATCC 17978; ATCC17978, A. baumannii ATCC 17978, read-out: Minimum inhibitory concentration",0.25 µg/mL
same,MIC,"E. faecium WB312; E. faecium WB312, read-out: Minimum inhibitory concentration",32 µg/mL
same,MIC,"E.faecium E007; E.faecium E007, read-out: Minimum inhibitory concentration",> 64 µg/mL
same,MIC,"E. faecium C68; E. faecium C68, read-out: Minimum inhibitory concentration",> 64 µg/mL
same,MIC,"E. faecium WC196; E. faecium WC196, read-out: Minimum inhibitory concentration",1 µg/mL
same,MIC,"K. pneumoniae WGLW2; K. pneumoniae WGLW2, read-out: Minimum inhibitory concentration",0.031 µg/mL
same,MIC,"E. aerogenes ATCC 13048; ATCC13048, E. aerogenes ATCC 13048, read-out: Minimum inhibitory concentration",0.031 µg/mL
same,increase of MIC over wild-type after serial passage,MRSA MW2 [1],32 fold
same,MIC,"P. aeruginosa PA14; P. aeruginosa PA14, read-out: Minimum inhibitory concentration",0.063 µg/mL
same,MIC,"S. aureus VRS1; S. aureus VRS1, read-out: Minimum inhibitory concentration",64 µg/mL
same,MIC,S. aureus Newman; S. aureus Newman,0.25 µg/mL
same,MIC,"S. aureus ATCC 33591; ATCC33591, S. aureus ATCC 33591, read-out: Minimum inhibitory concentration",0.25 µg/mL
same,MIC,"S. aureus JE2; S. aureus JE2, read-out: Minimum inhibitory concentration",16 µg/mL
same,MIC,"S. aureus NCTC 8325; NCTC8325, S. aureus NCTC 8325, read-out: Minimum inhibitory concentration",0.125 µg/mL
"CN[C@H](CC(C)C)C(=O)N[C@H]1C(=O)N[C@@H](CC(N)=O)C(=O)N[C@H]2C(=O)N[C@H]3C(=O)N[C@H](C(=O)N[C@H](C(=O)O)c4cc(O)cc(O)c4-c4cc3ccc4O)[C@H](O)c3ccc(c(Cl)c3)Oc3cc2cc(c3O[C@@H]2O[C@H](CO)[C@@H](O)[C@H](O)[C@H]2O[C@H]2C[C@](C)(N)[C@H](O)[C@H](C)O2)Oc2ccc(cc2Cl)[C@H]1O [Vancomycin, vancomycin]",MIC,"A. baumannii ATCC 17978; ATCC17978, read-out: Minimum inhibitory concentration",> 64 µg/mL
same,FICI (fractional inhibitory concentration index),MRSA MW2 [2],1
same,MIC,"E. faecium WB312; WB312, read-out: Minimum inhibitory concentration",16 µg/mL
same,MIC,"E.faecium E007; E007, read-out: Minimum inhibitory concentration",1 µg/mL
same,MIC,"E. faecium C68; C68, read-out: Minimum inhibitory concentration",64 µg/mL
same,MIC,"E. faecium WC196; WC196, read-out: Minimum inhibitory concentration",64 µg/mL
same,MIC,"K. pneumoniae WGLW2; WGLW2, read-out: Minimum inhibitory concentration",> 64 µg/mL
same,MIC,"E. aerogenes ATCC 13048; ATCC13048, read-out: Minimum inhibitory concentration",> 64 µg/mL
same,MIC,"S. aureus (MRSA) MW2; Staphylococcus aureus, MRSA, read-out: Minimum inhibitory concentration",1 µg/mL
same,"MRSA CFUs / viability of persisters in thigh, single agent",MRSA MW2 [3],neither vancomycin nor gentamicin reduced MRSA CFUs
same,decrease in viability,[4],2 log
same,MIC,"P. aeruginosa PA14; PA14, read-out: Minimum inhibitory concentration",> 64 µg/mL
same,MIC,"S. aureus ATCC 29213; Staphylococcus aureus, ATCC29213, read-out: Minimum inhibitory concentration",1 µg/mL
same,MIC,"S. aureus VRS1; VRS1, read-out: Minimum inhibitory concentration",> 64 µg/mL
same,MIC,S. aureus Newman; NEWMAN,2 µg/mL
same,MIC,"S. aureus ATCC 33591; ATCC33591, read-out: Minimum inhibitory concentration",2 µg/mL
same,MIC,"S. aureus JE2; JE2, read-out: Minimum inhibitory concentration",1 µg/mL
same,MIC,"S. aureus NCTC 8325; NCTC8325, read-out: Minimum inhibitory concentration",1 µg/mL
"Cc1onc(-c2ccccc2)c1C(=O)N[C@@H]1C(=O)N2[C@@H]1SC(C)(C)[C@@H]2C(=O)O [Oxa, oxacillin]",Minimum inhibitory concentration,A. baumannii ATCC 17978; A. baumannii ATCC 17978,>64 µg/mL
same,Minimum inhibitory concentration,E. faecium WB312; E. faecium WB312,>64 µg/mL
same,Minimum inhibitory concentration,E.faecium E007; E.faecium E007,>64 µg/mL
same,Minimum inhibitory concentration,E. faecium C68; E. faecium C68,>64 µg/mL
same,Minimum inhibitory concentration,E. faecium WC196; E. faecium WC196,>64 µg/mL
same,Minimum inhibitory concentration,K. pneumoniae WGLW2; K. pneumoniae WGLW2,>64 µg/mL
same,Minimum inhibitory concentration,E. aerogenes ATCC 13048; E. aerogenes ATCC 13048,>64 µg/mL
same,Minimum inhibitory concentration,S. aureus (MRSA) MW2; S. aureus (MRSA) MW2,64 µg/mL
same,Minimum inhibitory concentration,P. aeruginosa PA14; P. aeruginosa PA14,>64 µg/mL
same,Minimum inhibitory concentration,S. aureus ATCC 29213; S. aureus ATCC 29213,0.5 µg/mL
same,Minimum inhibitory concentration,S. aureus VRS1; S. aureus VRS1,>64 µg/mL
same,Minimum inhibitory concentration,S. aureus Newman; S. aureus Newman,0.5 µg/mL
same,Minimum inhibitory concentration,S. aureus ATCC 33591; S. aureus ATCC 33591,>64 µg/mL
same,Minimum inhibitory concentration,S. aureus JE2; S. aureus JE2,64 µg/mL
same,Minimum inhibitory concentration,S. aureus NCTC 8325; S. aureus NCTC 8325,0.5 µg/mL
